Reference: the C3SDB collision cross section collection
Values joined by “and” are separate entries in the source; they are usually repeats but may differ in a detail not shown here. Equal values may be shown once. Where a name gives a salt, the structure may show the parent alone.

settings: [M+H]+; instrument: TW; calibrated with polyalanine and drug standards

SMILES | collision cross section (N2)
COc1cc(C(=O)NCCCCCC(=O)O)cc(OC)c1OC [CAPOBENIC ACID] | 176.9 Å²
O=C1C=C2C=C[C@@H]3C[C@@]2(O1)[C@H]1CCCCN31 [SECURININE] | 146.4 Å²
CC[C@H]1OC(=O)C[C@@H](O)[C@H](C)[C@@H](O[C@@H]2O[C@H](C)[C@@H](O)[C@H](N(C)C)[C@H]2O)[C@@H](CCN2C[C@H](C)C[C@H](C)C2)C[C@@H](C)C(=O)/C=C/C(C)=C/[C@@H]1CO[C@@H]1O[C@H](C)[C@@H](O)[C@@H](OC)[C@H]1OC [TILMICOSIN] | 310.2 Å²
Nc1nc(/C(=C/CC(=O)O)C(=O)N[C@@H]2C(=O)N3C(C(=O)O)=CCS[C@H]23)cs1 [CEFTIBUTEN] | 191.4 Å²
COC(=O)C[C@H]1C2(C)CC34OC5(C)O[C@@]6([C@H](OC(C)=O)C(OC(C)=O)[C@]7(C)C(/C(=C(/O)C(C)C)C(=O)O[C@H]7c7ccoc7)[C@@]6(O5)[C@H](OC(C)=O)[C@@]3(O)C2OC(=O)C(C)C)[C@]14C (some centres not stated) [BUSSEIN] | 258.7 Å²
S=c1[nH]c2ccccc2s1 [2-MERCAPTOBENZOTHIAZOLE] | 126.4 Å²
CCN(CC)CCNC(=O)c1cc(Br)c(N)cc1OC [BROMOPRIDE] | 173.6 Å²
CCN(CC)Cc1cc(Nc2ccnc3cc(Cl)ccc23)ccc1O [AMODIAQUINE] | 191.9 Å²
Cc1ncc([N+](=O)[O-])n1CC(O)CCl (configuration not stated) [ORNIDAZOLE] | 141.7 Å²
CCN(Cc1ccncc1)C(=O)C(CO)c1ccccc1 (configuration not stated) [TROPICAMIDE] | 169.5 Å²
CCC(=O)c1c(O)cc(O)cc1O [FLOPROPIONE] | 134.3 Å²
Nc1ccc(S(=O)(=O)Nc2ncccn2)cc1 [SULFADIAZINE] | 150.9 Å²
O=C(/C=C/c1ccccc1)c1ccc(O)cc1 [4'-HYDROXYCHALCONE] | 150.8 Å²
CCN(CC)CCOCCOC(=O)C(CC)(CC)c1ccccc1 [OXELAIDIN CITRATE] | 178.3 Å²
OCC(O)CN1CCN(c2ccccc2)CC1 (configuration not stated) [DROPROPIZINE] | 155.7 Å²
O=C(CCc1ccc(O)cc1)c1c(O)cc(O)cc1O [PHLORETIN] | 160.7 Å²
C=Cc1c(C)c2cc3[nH]c(cc4nc(cc5nc(cc1[nH]2)C(C)=C5CCC(=O)O)C(CCC(=O)O)=C4C)c(C)c3C=C [PROTOPORPHYRIN IX] | 238.8 Å²
CC(=O)Nc1ccc(O)cc1 [ACETAMINOPHEN] | 129.7 Å²
c1ccc2[nH]c(-c3cscn3)nc2c1 [THIABENDAZOLE] | 137.7 Å²
NS(=O)(=O)c1cc2c(cc1Cl)NC(CSCc1ccccc1)=NS2(=O)=O [BENZTHIAZIDE] | 186.7 Å²

SMILES | collision cross section (N2)
Cc1ncc([N+](=O)[O-])n1CC(C)O (configuration not stated) [SECNIDAZOLE] | 135.2 Å²
CN1C[C@H](CNC(=O)OCc2ccccc2)C[C@@H]2c3cccc4c3c(cn4C)C[C@H]21 [METERGOLINE] | 197.6 Å²
CNc1ccccc1C(=O)O [N-METHYLANTHRANILIC ACID] | 125.9 Å²
NC(=O)c1ncn([C@@H]2O[C@H](CO)[C@@H](O)[C@H]2O)c1N [ACADESINE] | 153 Å²
C=C1C[C@@H]2[C@H](CC[C@]3(C)C(=O)CC[C@@H]23)[C@@]2(C)C=CC(=O)C=C12 [EXEMESTANE] | 171.1 Å²
CC(C)OC(=O)C(C)(C)Oc1ccc(C(=O)c2ccc(Cl)cc2)cc1 [FENOFIBRATE] | 190.5 Å²
COP(=S)(OC)Oc1ccc(Sc2ccc(OP(=S)(OC)OC)cc2)cc1 [TEMEFOS] | 203.3 Å² and 187.6 Å²
C[C@@H]1CC[C@H]2[C@](C)(CO)[C@@H](O)CC[C@]2(C)[C@@]12CC[C@@](CO)(CCO)O2 [LAGOCHILIN] | 171.2 Å²
O=C(O)CCCN1C(=O)c2cccc3cccc(c23)C1=O [4-NAPHTHALIMIDOBUTYRIC ACID] | 156.5 Å²
O=C(O)CCc1nc(-c2ccccc2)c(-c2ccccc2)o1 [OXAPROZIN] | 169.7 Å²
O=C1OC2(c3ccc(O)cc3Oc3cc(O)ccc32)c2ccccc21 [FLUORESCEIN] | 172.3 Å²
NCCc1ccc(O)c(O)c1 [3-HYDROXYTYRAMINE] | 127.7 Å²
COc1ccccc1N1CCNCC1 [1-(2-METHOXYPHENYL)PIPERAZINE] | 140.5 Å²
OCCc1ccccc1 [PHENYLETHYL ALCOHOL] | 121.2 Å²
C[C@@H]1CC[C@@]2(OC1)O[C@H]1C[C@H]3[C@@H]4CC[C@@H]5C[C@@H](O)CC[C@]5(C)[C@H]4CC[C@]3(C)[C@H]1[C@@H]2C [SMILAGENIN] | 207.7 Å²
COc1cc(CNC(=O)CCCC/C=C/C(C)C)ccc1O [CAPSAICIN] | 181.6 Å²
CCCCOC(=O)c1ccc(N)cc1 [BUTAMBEN] | 159.4 Å²
C[C@@H]1O[C@@H](O[C@H]2C[C@@H](O)[C@]3(CO)[C@H]4[C@H](O)C[C@]5(C)[C@@H](C6=CC(=O)OC6)CC[C@]5(O)[C@@H]4CC[C@]3(O)C2)[C@H](O)[C@H](O)[C@H]1O [OUABAIN] | 234 Å²
C=C[C@H]1CN2CC[C@H]1C[C@H]2[C@H](O)c1ccnc2ccccc12 [CINCHONIDINE] | 168.2 Å²

More lines, now with the values ahead:

collision cross section (N2) | SMILES
199.7 Å² | O=C1CCc2cc(OCCCCc3nnnn3C3CCCCC3)ccc2N1 [CILOSTAZOL]
177.8 Å² | CC(=O)[C@H]1CC[C@H]2[C@@H]3CCC4=CC(=O)CC[C@]4(C)[C@H]3CC[C@]12C [PROGESTERONE]
174.4 Å² | C#C[C@]1(O)CC[C@H]2[C@@H]3CCC4=CC(=O)CC[C@@H]4[C@H]3CC[C@@]21C [NORETHINDRONE]
142.6 Å² | Cc1c(N)c(=O)n(-c2ccccc2)n1C [AMPYRONE]
160.5 Å² | COc1cc(OC)c2c(=O)cc(-c3ccccc3)oc2c1 [CHRYSIN DIMETHYL ETHER]
188.5 Å² | CC1COc2c(N3CCN(C)CC3)c(F)cc3c(=O)c(C(=O)O)cn1c23 (configuration not stated) [OFLOXACIN]
201.8 Å² | CC(=O)[C@H]1CC[C@H]2[C@@H]3CCC4=CC(=O)CC[C@]4(C)[C@H]3C(OC(=O)CCC(=O)O)C[C@]12C (stereo partly drawn) [11alpha-HYDROXYPROGESTERONE HEMISUCCINATE]
186.8 Å² | C[C@]12C=CC(=O)C=C1CC[C@H]1[C@@H]3C[C@@H](O)[C@](O)(C(=O)CO)[C@@]3(C)C[C@H](O)[C@@]12F [TRIAMCINOLONE]
162.8 Å² | COc1cc(OC)c2c(c1)OC(c1ccccc1)CC2=O (configuration not stated) [ALPINETIN METHYL ETHER]
171 Å² | CCCCC(=O)O[C@H]1CC[C@H]2[C@@H]3CCc4cc(O)ccc4[C@H]3CC[C@]12C [ESTRADIOL VALERATE]
206.3 Å² | COC(=O)C[C@H]1C(C)(C)C(=O)[C@@H]2CC3=C(CC[C@]4(C)C3=CC(=O)O[C@H]4c3ccoc3)[C@@]1(C)C2=O [CARAPIN-8(9)-ENE]
149.8 Å² | CC1CCc2cc(F)cc3c(=O)c(C(=O)O)cn1c23 (configuration not stated) [FLUMEQUINE]
207.3 Å² | CC(=O)Oc1cc(OC(C)=O)c2c(c1)O[C@H](c1ccc(OC(C)=O)c(OC(C)=O)c1)[C@H](OC(C)=O)C2 [EPICATECHIN PENTAACETATE]
160.7 Å² | COc1ccc2c(=O)c(OC)c(-c3ccccc3)oc2c1 [3,7-DIMETHOXYFLAVONE]
117.7 Å² | Cc1occc(=O)c1O [LARIXINIC ACID]
195.4 Å² | C[C@H]1[C@H]2CC[C@H]3[C@@H]4CC=C5C[C@@H](N(C)C)CC[C@]5(C)[C@H]4CC[C@]23CN1C [CONESSINE]
213.6 Å² | COc1cc([C@H]2Oc3cc([C@H]4Oc5cc(O)cc(O)c5C(=O)[C@@H]4O)ccc3O[C@@H]2CO)ccc1O [SILIBININ]
161.5 Å² | Oc1cc(O)c2c(c1)O[C@H](c1ccc(O)c(O)c1)[C@H](O)C2 [EPICATECHIN]
149.5 Å² | C=C1C(=O)O[C@@H]2C[C@@]3(C)CCC[C@H](C)C3=C[C@H]12 [HELENINE]
154.2 Å² | CC1=CC(=O)C2=C(C)CC[C@@H]3[C@H](OC(=O)[C@H]3C)[C@@H]12 [LEUCODIN]
236.5 Å² | COc1ccc(-c2cc(=O)c3c(O)c(OC)c(O[C@@H]4O[C@H](CO[C@@H]5O[C@@H](C)[C@H](O)[C@@H](O)[C@H]5O)[C@@H](O)[C@H](O)[C@H]4O)cc3o2)cc1 [PECTOLINARIN]

same assay, conditions: [M+Na]+; instrument: TW; calibrated with polyalanine and drug standards

collision cross section (N2) [Å²] | SMILES
175.9 | O=C(O)CCCCCCCC(O)C(O)CCCCCCO (configuration not stated) [ALEURETIC ACID]
199.2 | OC[C@H]1O[C@@](CO)(O[C@H]2O[C@H](CO)[C@@H](O)[C@H](O)[C@H]2O)[C@@H](O[C@H]2O[C@H](CO)[C@@H](O)[C@H](O)[C@H]2O)[C@@H]1O [MELEZITOSE]
163.2 | OCc1ccccc1O[C@@H]1O[C@H](CO)[C@@H](O)[C@H](O)[C@H]1O [SALICIN]
199.1 | COC(=O)CC[C@@H](C)[C@H]1CC[C@H]2[C@@H]3CC[C@@H]4C[C@H](O)CC[C@]4(C)[C@H]3C[C@H](O)[C@]12C [METHYL DEOXYCHOLATE]
159.3 | CC(=O)N[C@@H](Cc1c[nH]c2ccccc12)C(N)=O [ACETYLTRYPTOPHANAMIDE]
141.7 | CC(=O)N[C@@H](CCC(=O)O)C(=O)O [ACETYLGLUTAMIC ACID]

same assay, conditions: [M]+; instrument: TW; calibrated with polyalanine and drug standards

collision cross section (N2) [Å²] | SMILES
214.8 | CCCCCCCCCCCCCCCC[N+](C)(C)Cc1ccccc1 [BENZALKONIUM CHLORIDE C16]
